Experimental data published in PubChem BioAssay AID248 (DTP/NCI, 2004).
“And” between values parts separate entries of the source, which are not always exact repeats. Equal values may be shown once. Toxic doses and inconclusive results are not listed. Rule as the data show it: active = T/C of 150% or more; inactive = T/C below 125%.

System: L1210 leukemia ip in BDF1 mice, survival T/C
Assay: NCI In Vivo Anticancer Drug Screen. Data for tumor model L1210 Leukemia (intraperitoneal) in B6D2F1 (BDF1) mice
Conditions: endpoint: mean survival time, higher = longer survival
Procedure, shortened: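 Transplantable tumor model; survival measured in treated vs vehicle control mice. Value = treated/control.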

[1] = dose: 100.0 mg/kg/injection, schedule: Q01DX009 (ip), vehicle: saline with Tween-80
[2] = dose: 200.0 mg/kg/injection, schedule: Q01DX009 (ip), vehicle: saline with Tween-80
[3] = dose: 100.0 mg/kg/injection, schedule: Q01DX009 (ip), vehicle: Klucel (hydroxypropylcellulose) (HPC)
[4] = dose: 200.0 mg/kg/injection, schedule: Q01DX009 (ip), vehicle: Klucel (hydroxypropylcellulose) (HPC)

Measured: T/C

CCOC(=O)N(CCC(=O)OC(C)(C)C)CC(=O)OC(C)(C)C
inactive: dose: 75.0 mg/kg/injection, schedule: Q01DX001 (ip), vehicle: saline 92 % of control | dose: 150.0 mg/kg/injection, schedule: Q01DX001 (ip), vehicle: saline 95 % of control | dose: 300.0 mg/kg/injection, schedule: Q01DX001 (ip), vehicle: saline 101 % of control

CN(C)C(=O)Nc1cccnc1
inactive: dose: 75.0 mg/kg/injection, schedule: Q04DX003 (ip), vehicle: saline 97 % of control | dose: 150.0 mg/kg/injection, schedule: Q04DX003 (ip), vehicle: saline 106 % of control | dose: 300.0 mg/kg/injection, schedule: Q04DX003 (ip), vehicle: saline 101 % of control

CC1OC2CCCCC2O1 (stereo unspecified)
inactive: dose: 50.0 mg/kg/injection, schedule: Q01DX009 (ip), vehicle: saline with Tween-80 97 % of control | [1] 97 % of control | [2] 94 % of control

NC(=O)c1[nH]cnc1/N=N/N(CCO)CCO
inactive: dose: 50.0 mg/kg/injection, schedule: Q01DX001 (ip), vehicle: water 102 % of control | dose: 50.0 mg/kg/injection, schedule: Q04DX003 (ip), vehicle: water 100 % of control | dose: 100.0 mg/kg/injection, schedule: Q01DX001 (ip), vehicle: water 97 % of control | [1] 105 % of control | dose: 100.0 mg/kg/injection, schedule: Q04DX003 (ip), vehicle: saline with Tween-80 101 % of control | dose: 100.0 mg/kg/injection, schedule: Q04DX003 (ip), vehicle: water 101 % of control | dose: 200.0 mg/kg/injection, schedule: Q01DX001 (ip), vehicle: water 103 % of control | [2] 105 % of control | dose: 200.0 mg/kg/injection, schedule: Q04DX003 (ip), vehicle: saline with Tween-80 101 % of control | dose: 200.0 mg/kg/injection, schedule: Q04DX003 (ip), vehicle: water 100 % of control | dose: 400.0 mg/kg/injection, schedule: Q01DX001 (ip), vehicle: water 101 % of control | dose: 400.0 mg/kg/injection, schedule: Q01DX009 (ip), vehicle: saline with Tween-80 100 % of control | dose: 400.0 mg/kg/injection, schedule: Q04DX003 (ip), vehicle: saline with Tween-80 98 % of control | dose: 400.0 mg/kg/injection, schedule: Q04DX003 (ip), vehicle: water 101 % of control

Cc1ccc(N)cc1[N+](=O)[O-]
inactive: dose: 100.0 mg/kg/injection, schedule: Q01DX001 (ip), vehicle: Klucel (hydroxypropylcellulose) (HPC) 105 % of control | dose: 200.0 mg/kg/injection, schedule: Q01DX001 (ip), vehicle: Klucel (hydroxypropylcellulose) (HPC) 95 % of control | dose: 400.0 mg/kg/injection, schedule: Q01DX001 (ip), vehicle: Klucel (hydroxypropylcellulose) (HPC) 95 % of control

O=C(Nc1ccc(F)cc1)OCCOc1ccc([N+](=O)[O-])cc1
inactive: [3] 96 % of control | [4] 107 % of control | dose: 400.0 mg/kg/injection, schedule: Q01DX009 (ip), vehicle: Klucel (hydroxypropylcellulose) (HPC) 93 % of control

CC(C)=CC1C(C(=O)OC2CCN(C)CC2)C1(C)C (stereo unspecified)
inactive: dose: 25.0 mg/kg/injection, schedule: Q01DX001 (ip), vehicle: saline 98 % of control | dose: 50.0 mg/kg/injection, schedule: Q01DX001 (ip), vehicle: saline 98 % of control | dose: 100.0 mg/kg/injection, schedule: Q01DX001 (ip), vehicle: saline 101 % of control and 107 % of control

O=C(O)c1ccc(C(=O)O)o1
inactive: dose: 100.0 mg/kg/injection, schedule: Q04DX002 (ip), vehicle: Klucel (hydroxypropylcellulose) (HPC) 95 % of control | dose: 200.0 mg/kg/injection, schedule: Q04DX002 (ip), vehicle: Klucel (hydroxypropylcellulose) (HPC) 91 % of control | dose: 400.0 mg/kg/injection, schedule: Q04DX002 (ip), vehicle: Klucel (hydroxypropylcellulose) (HPC) 91 % of control

CCOC(=O)/C(C#N)=C/NN
inactive: dose: 6.25 mg/kg/injection, schedule: Q04DX003 (ip), vehicle: saline 100 % of control | dose: 12.5 mg/kg/injection, schedule: Q04DX003 (ip), vehicle: saline 96 % of control | dose: 25.0 mg/kg/injection, schedule: Q04DX003 (ip), vehicle: saline 96 % of control

CCOC(=O)C1(C)CCCC1=O (stereo unspecified)
inactive: dose: 100.0 mg/kg/injection, schedule: Q01DX009 (ip), vehicle: saline sonified 94 % of control | dose: 200.0 mg/kg/injection, schedule: Q01DX009 (ip), vehicle: saline sonified 97 % of control | dose: 400.0 mg/kg/injection, schedule: Q01DX009 (ip), vehicle: saline sonified 95 % of control

COc1ccc(C=C2C(=O)NC(=O)NC2=O)cc1OC
inactive: dose: 50.0 mg/kg/injection, schedule: Q01DX009 (ip), vehicle: Klucel (hydroxypropylcellulose) (HPC) 92 % of control | [3] 96 % of control | [4] 96 % of control

CCC(C)C(CCN1CCCCC1)(CNC(=O)CN(CC)CC)c1cccc2ccccc12 (stereo unspecified)
inactive: dose: 100.0 mg/kg/injection, schedule: Q04DX003 (ip), vehicle: saline 103 % of control | dose: 200.0 mg/kg/injection, schedule: Q04DX003 (ip), vehicle: saline 103 % of control
